{
  "source": "patent US11939314B2",
  "about": "“Quinolin-2-one derivatives” (MERCK PATENT GMBH, priority 2016, dated 2024)",
  "key": {"PDGFRalpha(V561D)": {"biological_target": "T1, PDGFRalpha(V561D) (Homo sapiens, UniProt P16234, V561D)", "T1 construct": "recombinant human PDGFRalpha, amino acids 550end containing the V561 D mutation; 6His (N)", "T1 sequence (P16234 550-1089 V561D)": "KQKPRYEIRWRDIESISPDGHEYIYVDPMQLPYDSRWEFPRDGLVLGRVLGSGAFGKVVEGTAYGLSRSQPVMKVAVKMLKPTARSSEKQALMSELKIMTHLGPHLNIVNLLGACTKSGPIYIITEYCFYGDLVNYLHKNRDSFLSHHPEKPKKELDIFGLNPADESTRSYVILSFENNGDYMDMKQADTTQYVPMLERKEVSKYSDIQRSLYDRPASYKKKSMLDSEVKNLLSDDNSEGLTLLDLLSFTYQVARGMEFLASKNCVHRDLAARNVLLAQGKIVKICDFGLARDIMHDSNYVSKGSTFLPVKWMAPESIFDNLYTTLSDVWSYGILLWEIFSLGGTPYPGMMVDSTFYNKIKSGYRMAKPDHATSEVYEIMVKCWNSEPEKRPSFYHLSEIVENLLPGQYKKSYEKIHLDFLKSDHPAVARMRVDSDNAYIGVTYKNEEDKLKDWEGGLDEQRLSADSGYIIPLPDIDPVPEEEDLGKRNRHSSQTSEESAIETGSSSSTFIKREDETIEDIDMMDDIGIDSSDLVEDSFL", "test": "PDGFRalpha(V561D) assay", "assay_type": "biochemical", "settings": "recombinant human PDGFRalpha aa 550-end, 200 μM ATP, 1.4E-06 means 1.4×10^−6, read-out: Inhibition (IC50) of PDGFRα (V561D)", "protocol": "PDGFRalpha(V561D) (N-terminal 6His-tagged, recombinant human PDGFRalpha, amino acids 550end containing the V561 D mutation) is incubated with 8 mM MOPS pH 7.0, 0.2 mM EDTA, 250 μM GGMEDIYEFMGGKKK, 10 mM MgAcetate and [gamma-33P-ATP] (specific activity approx. 500 cpm/pmol, concentration 200 μM). The reaction is initiated by the addition of the MgATP mix. After incubation for 40 minutes at room temperature, the reaction is stopped by the addition of 3% phosphoric acid solution. 10 μL of the reaction is then spotted onto a P30 filtermat and washed three times for 5 minutes in 75 mM phosphoric acid and once in methanol prior to drying and scintillation counting."}, "c-Kit(V654A)": {"biological_target": "T2, c-Kit(V654A) (Homo sapiens, UniProt P10721, V654A)", "T2 construct": "amino acids 544-end containing the V654A mutation; GST (N)", "T2 sequence (P10721 544-976 V654A)": "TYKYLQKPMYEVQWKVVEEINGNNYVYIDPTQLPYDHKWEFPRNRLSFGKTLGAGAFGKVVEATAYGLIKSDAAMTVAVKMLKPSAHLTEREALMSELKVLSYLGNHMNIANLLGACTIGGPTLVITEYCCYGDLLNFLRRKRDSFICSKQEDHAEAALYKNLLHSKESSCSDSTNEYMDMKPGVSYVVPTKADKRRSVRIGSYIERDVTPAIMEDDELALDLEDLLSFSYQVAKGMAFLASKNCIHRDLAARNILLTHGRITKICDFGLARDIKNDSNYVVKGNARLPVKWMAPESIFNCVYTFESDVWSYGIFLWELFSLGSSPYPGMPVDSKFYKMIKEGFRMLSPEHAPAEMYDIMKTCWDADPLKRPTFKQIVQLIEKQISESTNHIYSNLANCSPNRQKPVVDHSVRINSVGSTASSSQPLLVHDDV", "test": "c-Kit(V654A) assay", "assay_type": "biochemical", "settings": "recombinant human c-Kit aa 544-end, 200 μM ATP, 1.4E-06 means 1.4×10^−6, read-out: Inhibition (IC50) of c-KIT (V654A)", "outline": "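Radiometric filter-binding read-out: substrate 33P incorporation counted by scintillation after P30 filtermat washes in 75 mM phosphoric acid and methanol. Enzyme: N-GST recombinant human c-Kit aa 544-end carrying V654A.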"}},
  "data": [
    {"compound": "O=C(c1ccc(-n2cc(-c3cc4c(F)cccc4[nH]c3=O)nn2)cc1)N1CCOCC1", "note": "[A48, 5-fluoro-3-{1-[4-(morpholine-4-carbonyl)-phenyl]-1H-[1,2,3]triazol-4-yl}-1H-quinolin-2-one]", "values": [
      {"measurement": "IC50", "setting": "PDGFRalpha(V561D)", "value": 19, "unit": "nM"},
      {"measurement": "IC50", "setting": "c-Kit(V654A)", "value": 17, "unit": "nM"}
    ]},
    {"compound": "O=C1COCCN1c1ccc(-n2cc(-c3cc4ccncc4[nH]c3=O)nn2)cc1", "note": "[A49, 3-{1-[4-(3-oxo-morpholin-4-yl)-phenyl]-1H-[1,2,3]triazol-4-yl}-1H-[1,7]naphthyridin-2-one]", "values": [
      {"measurement": "IC50", "setting": "PDGFRalpha(V561D)", "value": 42, "unit": "nM"},
      {"measurement": "IC50", "setting": "c-Kit(V654A)", "value": 150, "unit": "nM"}
    ]},
    {"compound": "O=C(c1ccc(-n2cc(-c3cc4ccccc4[nH]c3=O)nn2)cc1)N1CCNCC1", "note": "[A50, 3-{1-[4-(piperazine-1-carbonyl)-phenyl]-1H-[1,2,3]triazol-4-yl}-1H-quinolin-2-one]", "values": [
      {"measurement": "IC50", "setting": "PDGFRalpha(V561D)", "value": 14, "unit": "nM"},
      {"measurement": "IC50", "setting": "c-Kit(V654A)", "value": 24, "unit": "nM"}
    ]},
    {"compound": "O=C(NC1CCNCC1)c1ccc(-n2cc(-c3cc4cccnc4[nH]c3=O)nn2)cc1", "note": "[A51, 4-[4-(2-oxo-1,2-dihydro-[1,8]naphthyridin-3-yl)-[1,2,3]triazol-1-yl]-N-piperidin-4-yl-benzamide]", "values": [
      {"measurement": "IC50", "setting": "PDGFRalpha(V561D)", "value": 22, "unit": "nM"},
      {"measurement": "IC50", "setting": "c-Kit(V654A)", "value": 91, "unit": "nM"}
    ]},
    {"compound": "O=c1[nH]c2ccccc2cc1-c1cn(-c2ccc(N3CCNCC3)cc2)nn1", "note": "[A52, 3-[1-(4-piperazin-1-yl-phenyl)-1H-[1,2,3]triazol-4-yl]-1H-quinolin-2-one]", "values": [
      {"measurement": "IC50", "setting": "PDGFRalpha(V561D)", "value": 27, "unit": "nM"},
      {"measurement": "IC50", "setting": "c-Kit(V654A)", "value": 22, "unit": "nM"}
    ]},
    {"compound": "O=C(c1ccc(-n2cc(-c3cc4cc(F)ccc4[nH]c3=O)nn2)cc1)N1CCNCC1", "note": "[A53, 6-fluoro-3-{1-[4-(piperazine-1-carbonyl)-phenyl]-1H-[1,2,3]triazol-4-yl}-1H-quinolin-2-one]", "values": [
      {"measurement": "IC50", "setting": "PDGFRalpha(V561D)", "value": 9, "unit": "nM"},
      {"measurement": "IC50", "setting": "c-Kit(V654A)", "value": 11, "unit": "nM"}
    ]},
    {"compound": "O=c1[nH]c2ccccc2cc1-c1cn(-c2cnc(N3CCNCC3)nc2)nn1", "note": "[A54, 3-[1-(2-piperazin-1-yl-pyrimidin-5-yl)-1H-[1,2,3]triazol-4-yl]-1H-quinolin-2-one]", "values": [
      {"measurement": "IC50", "setting": "PDGFRalpha(V561D)", "value": 160, "unit": "nM"},
      {"measurement": "IC50", "setting": "c-Kit(V654A)", "value": 490, "unit": "nM"}
    ]},
    {"compound": "O=c1[nH]c2ccccc2cc1-c1cn(-c2ccc(N3CCCNCC3)cc2)nn1", "note": "[A55, 3-[1-(4-[1,4]diazepan-1-yl-phenyl)-1H-[1,2,3]triazol-4-yl]-1H-quinolin-2-one]", "values": [
      {"measurement": "IC50", "setting": "PDGFRalpha(V561D)", "value": 14, "unit": "nM"},
      {"measurement": "IC50", "setting": "c-Kit(V654A)", "value": 14, "unit": "nM"}
    ]},
    {"compound": "CN1CCN(C(=O)c2ccc(-n3cc(-c4cc5cc(F)ccc5[nH]c4=O)nn3)cc2)CC1", "note": "[A56, 6-fluoro-3-{1-[4-(4-methyl-piperazine-1-carbonyl)-phenyl]-1H-[1,2,3]triazol-4-yl}-1H-quinolin-2-one]", "values": [
      {"measurement": "IC50", "setting": "PDGFRalpha(V561D)", "value": 5, "unit": "nM"},
      {"measurement": "IC50", "setting": "c-Kit(V654A)", "value": 7, "unit": "nM"}
    ]},
    {"compound": "CN1CCN(C(=O)c2ccc(-n3cc(-c4cc5ccccc5[nH]c4=O)nn3)cc2)CC1", "note": "[A57, 3-{1-[4-(4-methyl-piperazine-1-carbonyl)-phenyl]-1H-[1,2,3]triazol-4-yl}-1H-quinolin-2-one]", "values": [
      {"measurement": "IC50", "setting": "PDGFRalpha(V561D)", "value": 6, "unit": "nM"},
      {"measurement": "IC50", "setting": "c-Kit(V654A)", "value": 15, "unit": "nM"}
    ]},
    {"compound": "CN1CCC(NC(=O)c2ccc(-n3cc(-c4cc5ccccc5[nH]c4=O)nn3)cc2)CC1", "note": "[A58, N-(1-Methyl-piperidin-4-yl)-4-[4-(2-oxo-1,2-dihydro-quinolin-3-yl)-[1,2,3]triazol-1-yl]-benzamide]", "values": [
      {"measurement": "IC50", "setting": "PDGFRalpha(V561D)", "value": 21, "unit": "nM"},
      {"measurement": "IC50", "setting": "c-Kit(V654A)", "value": 44, "unit": "nM"}
    ]},
    {"compound": "CN1CCC(N(C)C(=O)c2ccc(-n3cc(-c4cc5ccccc5[nH]c4=O)nn3)cc2)CC1", "note": "[A59, N-methyl-N-(1-methyl-piperidin-4-yl)-4-[4-(2-oxo-1,2-dihydro-quinolin-3-yl)-[1,2,3]triazol-1-yl]-benzamide]", "values": [
      {"measurement": "IC50", "setting": "PDGFRalpha(V561D)", "value": 46, "unit": "nM"},
      {"measurement": "IC50", "setting": "c-Kit(V654A)", "value": 76, "unit": "nM"}
    ]},
    {"compound": "CN1CCC(COc2ccc(-n3cc(-c4cc5ccccc5[nH]c4=O)nn3)cc2)CC1", "note": "[A60, 3-{1-[4-(1-methyl-piperidin-4-ylmethoxy)-phenyl]-1H-[1,2,3]triazol-4-yl}-1H-quinolin-2-one]", "values": [
      {"measurement": "IC50", "setting": "PDGFRalpha(V561D)", "value": 33, "unit": "nM"},
      {"measurement": "IC50", "setting": "c-Kit(V654A)", "value": 38, "unit": "nM"}
    ]},
    {"compound": "CN(C)C1CCN(C(=O)c2ccc(-n3cc(-c4cc5ccccc5[nH]c4=O)nn3)cc2)CC1", "note": "[A61, 3-{1-[4-(4-dimethylamino-piperidine-1-carbonyl)-phenyl]-1H-[1,2,3]triazol-4-yl}-1H-quinolin-2-one]", "values": [
      {"measurement": "IC50", "setting": "PDGFRalpha(V561D)", "value": 11, "unit": "nM"},
      {"measurement": "IC50", "setting": "c-Kit(V654A)", "value": 29, "unit": "nM"}
    ]}
  ]
}
